According to patent US7998979B2, “Antibacterial quinoline derivatives” (Janssen Pharmaceutical N.V., priority 2006, dated 2011):
In brackets after ≈: the same amount, converted by molar mass.

What was measured:
[1] = tested on: Streptococcus pneumoniae (ATCC6305); assay: IC90 determination, microtitre plate assay, SPN 6305; assay type: cell-based; details: 90% inhibitory concentration for bacterial growth, 37° C.; for IC90: Streptococcus pneumoniae, ATCC6305, 24 h, read-out: IC90 (μg/ml) SPN 6305; for IC90 (μg/ml) SPN 6305: 24 hours
Experimental: (§1) D.3. In-Vitro Method for Testing Compounds for Anti-Bacterial Activity Against Various Non-Mycobacterial Strains
(§2) Preparation of Bacterial Suspensions for Susceptibility Testing:
(§3) The bacteria used in this study were grown overnight in flasks containing 100 ml Mueller-Hinton Broth (Becton Dickinson—cat. no. 275730) in sterile de-ionized water, with shaking, at 37° C. Stocks (0.5 ml/tube) were stored at −70° C. until use. Bacteria titrations were performed in microtiter plates to detect the TCID50, in which the TCID50 represents the dilution that gives rise to bacterial growth in 50% of inoculated cultures.
(§4) In general, an inoculum level of approximately 100 TCID50 was used for susceptibility testing.
(§5) Anti Bacterial Susceptibility Testing: IC90 Determination
(§6) Flat-bottom, sterile 96-well plastic microtiter plates were filled with 180 μl of sterile deionized water, supplemented with 0.25% BSA. Subsequently, stock solutions (7.8×final test concentration) of compounds were added in 45 μl volumes in column 2 Serial five-fold dilutions (45 μl in 180 μl) were made directly in the microtiter plates from column 2 to reach column 11. Untreated control samples with (column 1) and without (column 12) inoculum were included in each microtiter plate. Depending on the bacteria type, approximately 10 to 60 CFU per well of bacteria inoculum (100 TCID50), in a volume of 100 μl in 2.8×Mueller-Hinton broth medium, was added to the rows A to H, except column 12. The same volume of broth medium without inoculum was added to column 12 in row A to H. The cultures were incubated at 37° C. for 24 hours under a normal atmosphere (incubator with open air valve and continuous ventilation). At the end of incubation, one day after inoculation, the bacterial growth was quantitated fluorometrically. Therefore resazurin (0.6 mg/ml) was added in a volume of 20 μl to all wells 3 hours after inoculation, and the plates were re-incubated overnight. A change in colour from blue to pink indicated the growth of bacteria. The fluorescence was read in a computer-controlled fluorometer (Cytofluor Biosearch) at an excitation wavelength of 530 nm and an emission wavelength of 590 nm. The % growth inhibition achieved by the compounds was calculated according to standard methods.

[2] = tested on: Staphylococcus aureus (ATCC29213); assay: IC90 determination, microtitre plate assay, STA 29213; assay type: cell-based; details: 90% inhibitory concentration for bacterial growth, 37° C.; for IC90 (μg/ml) STA B29213: 24 hours; for IC90: Staphylococcus aureus, ATCC29213, 24 h, read-out: IC90 (μg/ml) STA B29213
Experimental: as §1, §2, §3, §4, §5, §6

M. Smegmatis (ATCC607) = assay: In-vitro anti-bacterial activity against strain M. Smegmatis ATCC607; assay type: cell-based; details: 90% inhibitory concentration for bacterial growth, 37° C.; for IC90 (μg/ml) MSM 607: 48 hours; for IC90: Mycolicibacterium smegmatis, ATCC607, 48 h, read-out: IC90 (μg/ml) MSM 607
Experimental: D.2. In-Vitro Method for Testing Compounds for Anti-Bacterial Activity Against Strain M. Smegmatis ATCC607
Flat-bottom, sterile 96-well plastic microtiter plates were filled with 180 μl of sterile deionized water, supplemented with 0.25% BSA. Subsequently, stock solutions (7.8×final test concentration) of compounds were added in 45 μl volumes to a series of duplicate wells in column 2 so as to allow evaluation of their effects on bacterial growth. Serial five-fold dilutions (45 μl in 180 μl) were made directly in the microtiter plates from column 2 to 11 using a customised robot system (Zymark Corp., Hopkinton, Mass.). Pipette tips were changed after every 3 dilutions to minimize pipetting errors with high hydrophobic compounds. Untreated control samples with (column 1) and without (column 12) inoculum were included in each microtiter plate. Approximately 250 CFU per well of bacteria inoculum, in a volume of 100 μl in 2.8×Mueller-Hinton broth medium, was added to the rows A to H, except column 12. The same volume of broth medium without inoculum was added to column 12 in row A to H. The cultures were incubated at 37° C. for 48 hours in a humidified 5% CO2 atmosphere (incubator with open air valve and continuous ventilation). At the end of incubation, two days after inoculation, the bacterial growth was quantitated fluorometrically. Therefore Alamar Blue (10×) was added to all wells in a volume of 20 μl and plates were incubated for another 2 hours at […]
The fluorescence was read in a computer-controlled fluorometer (Cytofluor, Biosearch) at an excitation wavelength of 530 nm and an emission wavelength of 590 nm (gain 30).

[3] = tested on: Enterococcus faecalis (ATCC29212); assay: IC90 determination, microtitre plate assay, EFA 29212; assay type: cell-based; details: 90% inhibitory concentration for bacterial growth, 24 hours, 37° C., read-out: IC90 (μg/ml) EFA 29212
Experimental: as §1, §2, §3, §4, §5
(§7) Flat-bottom, sterile 96-well plastic microtiter plates were filled with 180 μl of sterile deionized water, supplemented with 0.25% BSA. […] At the end of incubation, one day after inoculation, the bacterial growth was quantitated fluorometrically. […] The fluorescence was read in a computer-controlled fluorometer (Cytofluor Biosearch) at an excitation wavelength of 530 nm and an emission wavelength of 590 nm. The % growth inhibition achieved by the compounds was calculated according to standard methods.

[4] = tested on: Streptococcus pyogens (ATCC8668); assay: IC90 determination, microtitre plate assay, SPY 8668; assay type: cell-based; details: 90% inhibitory concentration for bacterial growth, 24 hours, 37° C., read-out: IC90 (μg/ml) SPY 8668
Experimental: as §1, §2, §3, §4, §5, §7

[5] = tested on: Pseudomonas aeruginosa (ATCC27853); assay: IC90 determination, microtitre plate assay, PAE 27853; assay type: cell-based; details: 90% inhibitory concentration for bacterial growth, 24 hours, 37° C., read-out: IC90 (μg/ml) PAE 27853
Experimental: as §1, §2, §3, §4, §5, §7

[6] = tested on: Escherichia coli (ATCC35218); assay: IC90 determination, microtitre plate assay, ECO 35218; assay type: cell-based; details: 90% inhibitory concentration for bacterial growth, 24 hours, 37° C., read-out: IC90 (μg/ml) ECO 35218
Experimental: as §1, §2, §3, §4, §5, §7

[7] = tested on: methicilline resistant Staphylococcus aureus (MRSA) (a clinical isolate from the University of Antwerp); assay: IC90 determination, microtitre plate assay, STA RMETH; assay type: cell-based; details: 90% inhibitory concentration for bacterial growth, 37° C.; for IC90: Staphylococcus aureus, MRSA, 24 h, read-out: IC90 (μg/ml) STA RMETHIC
Experimental: as §1, §2, §3, §4, §5
as §6, with “Therefore resazurin (0.6 mg/ml) was added in a volume of 20 μl to all wells 3 hours after inoculation, and the plates were re-incubated overnight. A change in colour from blue to pink indicated the growth of bacteria.” left out

SMILES | IC90 (μg/ml) STA B29213 [2] [µg/mL] | melting point [°C] | IC90 (μg/ml) SPN 6305 [1] [µg/mL] | IC90 [2] [µg/mL] | IC90 (μg/ml) MSM 607 (M. Smegmatis (ATCC607)) [µg/mL] | IC90 (M. Smegmatis (ATCC607)) [µg/mL] | further results
CCN(CC)CCSCC(O)(c1ccccc1)C(c1ccccc1)c1cc2cc(Br)ccc2nc1OC (single isomer, unassigned) [Compound 5] | – | – | 2.31 (≈ 3.99 µM) | 58 (≈ 100 µM) | 2.06 (≈ 3.55 µM) | – | –
COc1nc2ccc(Br)cc2cc1C(c1ccccc1)C(O)(CSCCCN1CCCCC1)c1ccccc1 (single isomer, unassigned) [Compound 9] | 60.56 (≈ 100 µM) | 158 | 60.56 (≈ 100 µM) | – | 48.11 (≈ 79.4 µM) | – | –
COc1nc2ccc(Br)cc2cc1C(c1ccccc1)C(O)(CSCCCN1CCCCC1)c1ccccc1 (single isomer, unassigned) [Compound 10] | 4.81 (≈ 7.94 µM) | – | 2.15 (≈ 3.55 µM) | – | 1.92 (≈ 3.17 µM) | – | –
COc1nc2ccc(Br)cc2cc1C(c1ccccc1)C(O)(CSCCCN1CCN(C)CC1)c1ccccc1 (single isomer, unassigned) [Compound 11] | 4.93 (≈ 7.94 µM) | 136 | 1.96 (≈ 3.16 µM) | – | 1.96 (≈ 3.16 µM) | – | IC90 (μg/ml) STA RMETHIC ([7]; 24 hours): 12.38 µg/mL (≈ 19.9 µM)
COc1nc2ccc(Br)cc2cc1C(c1ccccc1)C(O)(CSCCCN1CCN(C)CC1)c1ccccc1 (single isomer, unassigned) [Compound 12] | – | – | – | 4.39 (≈ 7.07 µM) | – | 2.2 (≈ 3.54 µM) | IC90 [1]: 2.2 µg/mL (≈ 3.54 µM); IC90 [7]: 13.9 µg/mL (≈ 22.4 µM)
COc1nc2ccc(Br)cc2cc1C(c1ccccc1)C(O)(CN(C)CCN(C)C)c1ccccc1 (single isomer, unassigned) [Compound 13] | – | 128 | – | 43.6 (≈ 79.4 µM) | – | 8.69 (≈ 15.8 µM) | –
COc1nc2ccc(Br)cc2cc1C(c1ccccc1)C(O)(CN(C)CCN(C)C)c1ccccc1 (single isomer, unassigned) [Compound 14] | 54.85 (≈ 100 µM) | – | – | – | 8.69 (≈ 15.8 µM) | – | –
COc1nc2ccc(Br)cc2cc1C(c1ccccc1)C(O)(CN(CCN(C)C)Cc1ccccc1)c1ccccc1 (stereo not shown) [Compound 15] | 62.46 (≈ 100 µM) | – | 62.46 (≈ 100 µM) | – | 62.46 (≈ 100 µM) | – | –
COc1nc2ccc(Br)cc2cc1C(c1ccccc1)C(O)(CN(CCN(C)C)Cc1ccccc1)c1ccccc1 (stereo not shown) [Compound 16] | – | – | – | 62.5 (≈ 100 µM) | – | 55.7 (≈ 89.1 µM) | IC90 [1]: 62.5 µg/mL (≈ 100 µM)

Further lines, with some results ahead:

IC90 (μg/ml) STA B29213 [2] [µg/mL] | melting point [°C] | IC90 (μg/ml) SPN 6305 [1] [µg/mL] | IC90 [2] [µg/mL] | SMILES | IC90 (μg/ml) MSM 607 (M. Smegmatis (ATCC607)) [µg/mL] | IC90 (M. Smegmatis (ATCC607)) [µg/mL] | further results
8.74 (≈ 15.8 µM) | 175 | – | – | COc1nc2ccc(Br)cc2cc1C(c1ccccc1)C(O)(CSCCN(C)C)c1ccccc1 (single isomer, unassigned) [Compound 1] | 6.94 (≈ 12.6 µM) | – | IC90 [1]: 4.92 µg/mL (≈ 8.92 µM); IC90 [3]: 19.6 µg/mL (≈ 35.5 µM); IC90 [4]: 49.2 µg/mL (≈ 89.1 µM); IC90 [5]: 22 µg/mL (≈ 39.8 µM); IC90 [6]: 55.2 µg/mL (≈ 100 µM)
21.96 (≈ 39.8 µM) | – | 8.74 (≈ 15.8 µM) | – | COc1nc2ccc(Br)cc2cc1C(c1ccccc1)C(O)(CSCCN(C)C)c1ccccc1 (single isomer, unassigned) [Compound 2] | 2.46 (≈ 4.46 µM) | – | –
6.35 (≈ 11.2 µM) | – | 2.01 (≈ 3.55 µM) | – | COc1nc2ccc(Br)cc2cc1C(c1ccccc1)C(O)(CSCCCN(C)C)c1ccccc1 (single isomer, unassigned) [Compound 3] | 1.79 (≈ 3.16 µM) | – | IC90 [3]: 11.3 µg/mL (≈ 19.9 µM); IC90 [4]: 7.99 µg/mL (≈ 14.1 µM); IC90 [5]: 11.3 µg/mL (≈ 19.9 µM); IC90 [7]: 11.3 µg/mL (≈ 19.9 µM); IC90 [6]: 14.2 µg/mL (≈ 25.1 µM)
– | 136 | 10.06 (≈ 17.8 µM) | 7.99 (≈ 14.1 µM) | COc1nc2ccc(Br)cc2cc1C(c1ccccc1)C(O)(CSCCCN(C)C)c1ccccc1 (single isomer, unassigned) [Compound 4] | – | 2.01 (≈ 3.55 µM) | –
51.66 (≈ 89.1 µM) | 148 | 23.07 (≈ 39.8 µM) | – | CCN(CC)CCSCC(O)(c1ccccc1)C(c1ccccc1)c1cc2cc(Br)ccc2nc1OC (single isomer, unassigned) [Compound 6] | 10.31 (≈ 17.8 µM) | – | –
9.41 (≈ 15.9 µM) | 104 | 2.65 (≈ 4.46 µM) | – | CCN(CC)CCCSCC(O)(c1ccccc1)C(c1ccccc1)c1cc2cc(Br)ccc2nc1OC (single isomer, unassigned) [Compound 7] | 1.88 (≈ 3.17 µM) | – | –
1.88 (≈ 3.17 µM) | – | – | – | CCN(CC)CCCSCC(O)(c1ccccc1)C(c1ccccc1)c1cc2cc(Br)ccc2nc1OC (single isomer, unassigned) [Compound 8] | – | 1.88 (≈ 3.17 µM) | IC90 [1]: 2.36 µg/mL (≈ 3.98 µM)
